Measurements as given in EP0636626A1, “Pyrazolopyrimidine Derivatives” (LABORATOIRES GLAXO SA, priority 1993, dated 1995).

Biological target: T1, cGMP specific PDE (Phosphodiesterase type V) (Bos taurus, UniProt Q28156)
T1 construct: The PDE V in enzyme is isolated from bovine aorta; from tissue; host or cells: bovine aorta
Assay: cGMP specific PDE (PDE V) inhibition, "one step" assay
Format: biochemical
Settings: PDE V isolated from bovine aorta; concentration of inhibitor required for 50% inhibition of enzyme activity; read-out: IC₅₀
Experimental: The affinities of compounds of formula (I) for cGMP specific PDE (Phosphodiesterase type V) may be assessed by determination of their IC₅₀ values (the concentration of inhibitor required for 50% inhibition of enzyme activity). The PDE V in enzyme is isolated from bovine aorta, essentially by the method of Lugnier et al. in Biochem. Pharmacology 35, 1743 (1986) and assays are performed using a "one step" assay adapted from the method of Wells et al in Biochim. Biophys. Acta 384, 430 (1975).
Compounds of the invention were assayed according to the procedure described hereinabove.

IC50, 1 to 10 nM:
CCCOc1ccc(N)cc1-c1nc2c(c(C)nn2C)c(=O)[nH]1 [Example 7, 1,3-Dimethyl-6-(2-propoxy-5-aminophenyl)-1,5-dihydropyrazolo[3,4-d]pyrimidin-4-one]
CCCOc1ccc(NS(C)(=O)=O)cc1-c1nc2c(c(C)nn2C)c(=O)[nH]1 [Example 11, 1,3-Dimethyl-6-(2-propoxy-5-methanesulfonamidophenyl)-1,5-dihydropyrazolo[3,4-d]pyrimidin-4-one]
CCCOc1ccc(NC(C)=O)cc1-c1nc2c(c(C)nn2C)c(=O)[nH]1 [Example 15, 1,3-Dimethyl-6-(2-propoxy-5-acetamidophenyl)-1,5-dihydropyrazolo[3,4-d]pyrimidin-4-one]
CCCOc1ccc(NC(=O)c2ccc(F)cc2)cc1-c1nc2c(c(C)nn2C)c(=O)[nH]1 [Example 18, 1,3-Dimethyl-6-[2-propoxy-5-(4-fluorobenzamido)phenyl]-1,5-dihydropyrazolo[3,4-d]pyrimidin-4-one]
CCCOc1ccc(NC(=O)c2cccs2)cc1-c1nc2c(c(C)nn2C)c(=O)[nH]1 [Example 19, 1,3-Dimethyl-6-[2-propoxy-5-((2-thienyl)carboxamido)phenyl]-1,5-dihydropyrazolo[3,4-d]pyrimidin-4-one]
CCCOc1ccc(NC(=O)OCC)cc1-c1nc2c(c(C)nn2C)c(=O)[nH]1 [Example 22, 1,3-Dimethyl-6-(2-propoxy-5-ethoxycarbonylaminophenyl)-1,5-dihydropyrazolo[3,4-d]pyrimidin-4-one]
CCCOc1ccc(NC(=O)NCC)cc1-c1nc2c(c(C)nn2C)c(=O)[nH]1 [Example 30, 1,3-Dimethyl-6-(2-propoxy-5-ethylureidophenyl)-1,5-dihydro-pyrazolo[3,4-d]pyrimidin-4-one]
CCCOc1ccc(NC(=S)NCC)cc1-c1nc2c(c(C)nn2C)c(=O)[nH]1 [Example 31, 1,3-Dimethyl-6-(2-propoxy-5-ethylthioureidophenyl)-1,5-dihydro-pyrazolo[3,4-d]pyrimidin-4-one]
CCCOc1ccc(-c2nc(C)cs2)cc1-c1nc2c(c(C)nn2CC)c(=O)[nH]1 [Example 37, 1-Ethyl-3-methyl-6-[2-propoxy-5-(4-methyl-2-thiazolyl)phenyl]-1,5-dihydro-pyrazolo[3,4-d] pyrimidin-4-one]
CCCOc1ccc(NC(=O)C(F)(F)F)cc1-c1nc2c(c(C)nn2C)c(=O)[nH]1 [Example 41, 1,3-Dimethyl-6-(2-propoxy-5-trifluoroacetamidophenyl)-1,5-dihydro-pyrazolo[3,4-d]pyrimidin-4-one]
CCCOc1ccc(-c2csc(C)n2)cc1-c1nc2c(c(C)nn2C)c(=O)[nH]1 [Example 51, 1,3-Dimethyl-6-[2-propoxy-5-(2-methyl-4-thiazolyl)phenyl]-1,5-dihydro-pyrazolo[3,4-d]pyrimidin-4-one]
CCCOc1ccc(-c2csc(C)n2)cc1-c1nc2c(c(C)nn2CC)c(=O)[nH]1 [Example 63, 1-Ethyl-3-methyl-6-[2-propoxy-5-(2-methyl-4-thiazolyl)phenyl]-1,5-dihydropyrazolo[3,4-d]pyrimidin-4-one]
CCCOc1ccc(-c2csc(-c3cccnc3)n2)cc1-c1nc2c(c(C)nn2CC)c(=O)[nH]1 [Example 65, 1-Ethyl-3-methyl-6-[2-propoxy-5-(2-(3-pyridyl)-4-thiazolyl)phenyl]-1,5-dihydropyrazolo[3,4-d]pyrimidin-4-one]
CCCOc1ccc(-c2n[nH]c(-c3ccccc3)n2)cc1-c1nc2c(c(C)nn2C)c(=O)[nH]1 [Example 67, 1,3-Dimethyl-6-[2-propoxy-5-(3-phenyl-1,2,4-triazol-5-yl)phenyl]-1,5-dihydropyrazolo[3,4-d] pyrimidin-4-one]
CCCOc1ccc(-c2ccc(C)s2)cc1-c1nc2c(c(C)nn2C)c(=O)[nH]1 [Example 69, 1,3-Dimethyl-6-[2-propoxy-5-(5-methyl-2-thienyl)phenyl]-1,5-dihydropyrazolo[3,4-d]pyrimidin-4-one]
